Experimental data as given in article doi:10.1101/2024.08.19.608619, “Discovery of potent SARS-CoV-2 nsp3 macrodomain inhibitors uncovers lack of translation to cellular antiviral response” (bioRxiv, 2024).
pIC50: −log10 of the molar value. Several values for one entry are separate records, joined by “and”; a condition that tells them apart may be missing. Equal entries are not always repeated. Where two headings read alike, the source gives them in different places.

Key:
NaV1.5 = NaV1.5 (Homo sapiens, UniProt Q14524); experiment: In vitro NaV1.5 cardiotoxicity; conditions: top test concentration 30 uM
Source text: Supplement media-1.zip/Cardiotoxicity.csv, table | column: ic50_rest_state; ic50_use_dep_block; perc_inhibition_rest_state; perc_inhibition_use_dep_block

hERG = hERG (Homo sapiens, UniProt Q12809); experiment: In vitro hERG cardiotoxocity; conditions: for pIC50: top test concentration 30 uM
hERG, sequence (Q12809 whole entry): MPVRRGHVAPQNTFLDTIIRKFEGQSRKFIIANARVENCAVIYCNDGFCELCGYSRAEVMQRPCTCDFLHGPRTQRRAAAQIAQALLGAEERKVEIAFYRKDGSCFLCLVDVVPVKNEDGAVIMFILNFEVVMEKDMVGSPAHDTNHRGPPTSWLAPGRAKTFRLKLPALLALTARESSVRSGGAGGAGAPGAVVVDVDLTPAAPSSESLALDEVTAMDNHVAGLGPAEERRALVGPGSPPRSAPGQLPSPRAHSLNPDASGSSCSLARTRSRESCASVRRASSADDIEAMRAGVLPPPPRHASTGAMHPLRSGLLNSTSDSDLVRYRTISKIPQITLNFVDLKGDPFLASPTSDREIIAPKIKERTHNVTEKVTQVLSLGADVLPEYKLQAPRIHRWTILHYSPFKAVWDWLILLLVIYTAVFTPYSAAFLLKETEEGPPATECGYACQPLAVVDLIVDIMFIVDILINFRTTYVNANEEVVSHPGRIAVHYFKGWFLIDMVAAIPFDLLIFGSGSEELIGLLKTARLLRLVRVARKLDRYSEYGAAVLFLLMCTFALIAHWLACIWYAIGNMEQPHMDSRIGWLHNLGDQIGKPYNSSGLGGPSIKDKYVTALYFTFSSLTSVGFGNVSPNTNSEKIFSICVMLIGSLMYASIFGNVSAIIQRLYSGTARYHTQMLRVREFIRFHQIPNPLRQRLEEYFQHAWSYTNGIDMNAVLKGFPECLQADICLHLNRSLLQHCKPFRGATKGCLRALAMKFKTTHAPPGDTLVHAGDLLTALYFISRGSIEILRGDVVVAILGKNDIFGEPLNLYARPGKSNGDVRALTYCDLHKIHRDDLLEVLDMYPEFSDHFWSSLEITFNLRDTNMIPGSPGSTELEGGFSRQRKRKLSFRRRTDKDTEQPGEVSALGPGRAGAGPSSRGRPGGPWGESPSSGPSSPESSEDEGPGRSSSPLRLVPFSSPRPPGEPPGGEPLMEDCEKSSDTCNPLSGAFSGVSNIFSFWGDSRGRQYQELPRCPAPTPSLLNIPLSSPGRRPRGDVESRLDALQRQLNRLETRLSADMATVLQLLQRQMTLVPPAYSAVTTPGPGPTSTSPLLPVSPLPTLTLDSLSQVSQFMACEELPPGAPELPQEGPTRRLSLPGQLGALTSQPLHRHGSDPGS
Source text: Supplement media-1.zip/Cardiotoxicity.csv, table | column: ic50; perc_inhibition_top_conc

PKCα(h) = molecular target: T1, PKCα(h) (Homo sapiens, UniProt P17252); experiment: biochemical; set-up: In vitro kinase panel profiling, per cent remaining kinase activity at 10 uM; conditions: atp_concentration=45, read-out: % of control remaining
T1 construct: gene PRKCA
Source text: (§1) We derisk potential for off-target activity by profiling the compound in a CEREP panel, a standard secondary pharmacology assessment, as well as a kinase panel to derisk a potential hinge-binding motif in our leads, and a PARP panel to derisk activity against human […]. Reassuringly, the compounds are selective, with the only off-targets being moderate human CHRM2 and KOR receptors activity associated with ASAP-0011198.

CDK6/cyclinD3(h) = CDK6/cyclinD3(h) (Homo sapiens, UniProt Q00534); experiment: biochemical; set-up: In vitro kinase panel profiling, per cent remaining kinase activity at 10 uM; conditions: atp_concentration=200, read-out: % of control remaining
CDK6/cyclinD3(h), sequence (Q00534 whole entry): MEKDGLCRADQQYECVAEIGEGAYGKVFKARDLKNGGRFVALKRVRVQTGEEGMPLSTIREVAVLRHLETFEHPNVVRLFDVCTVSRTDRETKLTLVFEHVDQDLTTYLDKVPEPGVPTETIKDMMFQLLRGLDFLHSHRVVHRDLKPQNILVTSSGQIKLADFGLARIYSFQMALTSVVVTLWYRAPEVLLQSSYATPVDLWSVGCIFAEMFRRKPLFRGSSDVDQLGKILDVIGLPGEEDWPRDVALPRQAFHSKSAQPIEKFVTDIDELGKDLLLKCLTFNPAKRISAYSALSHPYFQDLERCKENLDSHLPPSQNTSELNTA
CDK6/cyclinD3(h), sequence (P30281 whole entry partner): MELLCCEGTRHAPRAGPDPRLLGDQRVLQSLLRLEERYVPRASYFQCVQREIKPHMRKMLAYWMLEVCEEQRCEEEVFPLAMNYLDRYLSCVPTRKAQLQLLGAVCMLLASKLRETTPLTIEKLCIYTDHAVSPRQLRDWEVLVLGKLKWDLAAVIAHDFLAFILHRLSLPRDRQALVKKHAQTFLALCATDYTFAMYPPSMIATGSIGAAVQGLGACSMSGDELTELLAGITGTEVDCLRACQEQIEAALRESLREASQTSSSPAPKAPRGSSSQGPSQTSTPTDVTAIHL
Source text: as §1

MAPKAP-K2(h) = molecular target: T2, MAPKAP-K2(h) (Homo sapiens, UniProt P49137); experiment: biochemical; set-up: In vitro kinase panel profiling, per cent remaining kinase activity at 10 uM; conditions: atp_concentration=90, read-out: % of control remaining
T2 construct: gene MAPKAPK2
T2 sequence (P49137 whole entry): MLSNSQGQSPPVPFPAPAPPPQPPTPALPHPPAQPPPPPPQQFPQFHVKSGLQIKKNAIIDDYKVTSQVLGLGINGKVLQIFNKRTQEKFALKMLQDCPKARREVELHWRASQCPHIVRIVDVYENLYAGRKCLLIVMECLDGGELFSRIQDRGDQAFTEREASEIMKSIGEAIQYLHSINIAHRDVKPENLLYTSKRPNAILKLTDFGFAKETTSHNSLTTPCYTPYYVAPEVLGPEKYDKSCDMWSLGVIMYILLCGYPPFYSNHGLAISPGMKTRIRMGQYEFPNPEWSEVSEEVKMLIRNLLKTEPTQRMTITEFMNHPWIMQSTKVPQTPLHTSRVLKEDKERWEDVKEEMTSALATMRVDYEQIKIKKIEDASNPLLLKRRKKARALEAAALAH
Source text: as §1

[1] = molecular target: T3, PI3 Kinase (p110α/p85α)(h) (Homo sapiens, UniProt P42336); experiment: biochemical; set-up: In vitro kinase panel profiling, per cent remaining kinase activity at 10 uM; conditions: atp_concentration=200, read-out: % of control remaining
T3 construct: gene PIK3CA
T3 sequence (P42336 whole entry): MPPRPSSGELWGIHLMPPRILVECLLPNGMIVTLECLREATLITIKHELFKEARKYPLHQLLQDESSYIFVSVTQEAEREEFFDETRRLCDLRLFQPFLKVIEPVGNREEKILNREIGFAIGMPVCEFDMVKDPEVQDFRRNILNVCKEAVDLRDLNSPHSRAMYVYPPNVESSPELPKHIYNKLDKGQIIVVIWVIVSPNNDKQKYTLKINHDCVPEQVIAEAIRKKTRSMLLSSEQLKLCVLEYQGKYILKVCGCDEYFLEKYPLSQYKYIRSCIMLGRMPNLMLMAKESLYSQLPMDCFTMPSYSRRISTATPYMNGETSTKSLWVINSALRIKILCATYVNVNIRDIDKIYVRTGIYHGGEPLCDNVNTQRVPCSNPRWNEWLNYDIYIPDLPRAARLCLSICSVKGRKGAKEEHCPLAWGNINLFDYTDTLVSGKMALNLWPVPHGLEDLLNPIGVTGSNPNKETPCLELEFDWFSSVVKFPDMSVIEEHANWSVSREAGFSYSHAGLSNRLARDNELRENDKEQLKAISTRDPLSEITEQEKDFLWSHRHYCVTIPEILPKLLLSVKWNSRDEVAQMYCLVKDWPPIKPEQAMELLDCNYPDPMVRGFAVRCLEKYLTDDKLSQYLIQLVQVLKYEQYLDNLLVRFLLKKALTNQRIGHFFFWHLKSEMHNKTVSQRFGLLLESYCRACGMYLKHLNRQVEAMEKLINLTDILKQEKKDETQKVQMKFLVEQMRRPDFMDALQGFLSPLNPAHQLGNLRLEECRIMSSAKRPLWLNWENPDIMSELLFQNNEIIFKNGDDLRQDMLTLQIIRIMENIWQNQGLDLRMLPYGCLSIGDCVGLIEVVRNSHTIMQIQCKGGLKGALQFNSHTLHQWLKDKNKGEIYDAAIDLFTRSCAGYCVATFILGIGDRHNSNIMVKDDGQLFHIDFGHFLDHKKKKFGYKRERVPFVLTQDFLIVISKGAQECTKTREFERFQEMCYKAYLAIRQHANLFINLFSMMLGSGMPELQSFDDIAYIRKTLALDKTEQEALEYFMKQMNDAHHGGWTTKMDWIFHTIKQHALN
T3 sequence (P27986 whole entry partner): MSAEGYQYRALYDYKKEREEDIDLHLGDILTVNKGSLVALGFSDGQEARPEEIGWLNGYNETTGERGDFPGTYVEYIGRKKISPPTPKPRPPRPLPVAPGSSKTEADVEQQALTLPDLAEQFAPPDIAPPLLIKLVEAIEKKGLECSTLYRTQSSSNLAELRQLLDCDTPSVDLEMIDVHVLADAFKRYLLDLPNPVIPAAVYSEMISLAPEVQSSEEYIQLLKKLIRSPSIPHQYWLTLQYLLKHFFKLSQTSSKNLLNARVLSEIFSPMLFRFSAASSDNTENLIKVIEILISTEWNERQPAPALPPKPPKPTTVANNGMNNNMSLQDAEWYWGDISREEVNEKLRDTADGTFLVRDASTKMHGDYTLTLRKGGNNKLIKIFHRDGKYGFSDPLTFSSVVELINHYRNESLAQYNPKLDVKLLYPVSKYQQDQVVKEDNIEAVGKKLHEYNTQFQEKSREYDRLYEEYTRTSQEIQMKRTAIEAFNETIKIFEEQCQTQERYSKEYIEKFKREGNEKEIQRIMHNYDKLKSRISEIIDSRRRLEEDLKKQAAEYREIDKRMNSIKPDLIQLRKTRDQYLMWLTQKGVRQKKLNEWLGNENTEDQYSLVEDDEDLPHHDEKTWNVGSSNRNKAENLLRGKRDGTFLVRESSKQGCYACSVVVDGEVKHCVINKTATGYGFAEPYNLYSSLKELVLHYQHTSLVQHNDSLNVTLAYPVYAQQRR
Source text: as §1

p70S6K(h) = molecular target: T4, p70S6K(h) (Homo sapiens, UniProt P23443); experiment: biochemical; set-up: In vitro kinase panel profiling, per cent remaining kinase activity at 10 uM; conditions: atp_concentration=15, read-out: % of control remaining
T4 construct: gene RPS6KB1
Source text: as §1

[2] = molecular target: T5, PI3 Kinase (p110β/p85α)(h) (Homo sapiens, UniProt P42338); experiment: biochemical; set-up: In vitro kinase panel profiling, per cent remaining kinase activity at 10 uM; conditions: atp_concentration=200, read-out: % of control remaining
T5 construct: gene PIK3CB
Source text: as §1

[3] = Permeability Papp (AB) MDR1/MDCKII; conditions: for papp_a_to_b_mean / papp_b_to_a_mean / efflux_ratio / perc_recovery_a_to_b_mean / perc_recovery_b_to_a_mean: In vitro MDR1-MDCKII permeability; for papp_b_to_a_mean: B to A; for perc_recovery_a_to_b_mean / perc_recovery_a_to_b_inhibitor_mean: recovery A to B; for perc_recovery_b_to_a_mean / perc_recovery_b_to_a_inhibitor_mean: recovery B to A; for perc_recovery_a_to_b_inhibitor_mean / perc_recovery_b_to_a_inhibitor_mean: MDR1-MDCKII
[4] = Hepatic microsomal stability, MLM; format: in vitro ADME; conditions: In vitro mouse liver microsomal stability; for perc_remaining_no_cofactor: no cofactor
human CHRM2 (M2) = molecular target: T6, human CHRM2 (M2) (Homo sapiens, UniProt P08172); experiment: Eurofins CEREP panel, M2; format: binding
T6 construct: purchased Eurofins Cerep (SafetyScreen44), recognised from the panel format
T6 sequence (P08172 1-466): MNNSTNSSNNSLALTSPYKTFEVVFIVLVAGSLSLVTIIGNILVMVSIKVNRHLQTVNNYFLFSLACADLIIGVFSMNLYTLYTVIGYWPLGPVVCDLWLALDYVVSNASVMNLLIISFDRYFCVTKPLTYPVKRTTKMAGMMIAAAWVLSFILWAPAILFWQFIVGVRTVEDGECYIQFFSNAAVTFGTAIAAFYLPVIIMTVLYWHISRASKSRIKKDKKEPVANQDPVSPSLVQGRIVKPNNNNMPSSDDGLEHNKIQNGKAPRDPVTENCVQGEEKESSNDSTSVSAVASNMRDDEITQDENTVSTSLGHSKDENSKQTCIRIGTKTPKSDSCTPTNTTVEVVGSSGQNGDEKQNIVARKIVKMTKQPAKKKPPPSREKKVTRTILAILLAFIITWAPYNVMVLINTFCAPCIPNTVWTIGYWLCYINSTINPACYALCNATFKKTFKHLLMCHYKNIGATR

beta1 (h) = molecular target: T7, beta1 (h) (Homo sapiens, UniProt P08588); experiment: In vitro CEREP profiling, beta1 (h) (agonist radioligand); format: binding; conditions: test compound 10 uM
T7 construct: purchased Eurofins Cerep (SafetyScreen44), recognised from the panel format
T7 sequence (P08588 whole entry): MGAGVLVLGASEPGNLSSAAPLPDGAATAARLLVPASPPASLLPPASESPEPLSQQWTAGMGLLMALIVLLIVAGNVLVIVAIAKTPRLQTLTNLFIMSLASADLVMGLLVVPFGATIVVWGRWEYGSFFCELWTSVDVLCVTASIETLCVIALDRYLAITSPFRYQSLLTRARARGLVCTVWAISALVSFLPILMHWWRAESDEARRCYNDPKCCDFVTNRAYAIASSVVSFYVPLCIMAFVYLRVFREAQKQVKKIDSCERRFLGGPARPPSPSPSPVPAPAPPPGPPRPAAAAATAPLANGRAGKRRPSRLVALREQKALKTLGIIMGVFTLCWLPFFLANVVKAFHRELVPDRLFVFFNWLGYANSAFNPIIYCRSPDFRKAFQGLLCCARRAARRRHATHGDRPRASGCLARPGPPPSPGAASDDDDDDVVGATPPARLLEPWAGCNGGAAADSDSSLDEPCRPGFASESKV
Source text: (§2) Supplement media-1.zip/Safety_Panel_Profile.csv, table | column: perc_inhibition

[5] = In vitro dog liver microsomal stability; format: in vitro ADME
Source text: (§3) Supplement media-1.zip/Hepatic_Microsomal_Stability.csv, table | column: clint; t_half

D2S (h) = molecular target: T8, D2S (h) (Homo sapiens, UniProt P14416); experiment: In vitro CEREP profiling, D2S (h) (agonist radioligand); format: binding; conditions: test compound 10 uM
T8 construct: purchased Eurofins Cerep (SafetyScreen44), recognised from the panel format
Source text: as §2

[6] = In vitro rat SD liver microsomal stability; format: in vitro ADME
Source text: as §3

AR(h) = experiment: In vitro CEREP profiling, AR(h) (agonist radioligand); format: binding, human; conditions: test compound concentration 10 uM
Source text: as §2

M3 (h) = molecular target: T9, M3 (h) (Homo sapiens, UniProt P20309); experiment: In vitro CEREP profiling, M3 (h) (antagonist radioligand); format: binding; conditions: test compound concentration 10 uM
T9 construct: purchased Eurofins Cerep (SafetyScreen44), recognised from the panel format
T9 sequence (P20309 whole entry): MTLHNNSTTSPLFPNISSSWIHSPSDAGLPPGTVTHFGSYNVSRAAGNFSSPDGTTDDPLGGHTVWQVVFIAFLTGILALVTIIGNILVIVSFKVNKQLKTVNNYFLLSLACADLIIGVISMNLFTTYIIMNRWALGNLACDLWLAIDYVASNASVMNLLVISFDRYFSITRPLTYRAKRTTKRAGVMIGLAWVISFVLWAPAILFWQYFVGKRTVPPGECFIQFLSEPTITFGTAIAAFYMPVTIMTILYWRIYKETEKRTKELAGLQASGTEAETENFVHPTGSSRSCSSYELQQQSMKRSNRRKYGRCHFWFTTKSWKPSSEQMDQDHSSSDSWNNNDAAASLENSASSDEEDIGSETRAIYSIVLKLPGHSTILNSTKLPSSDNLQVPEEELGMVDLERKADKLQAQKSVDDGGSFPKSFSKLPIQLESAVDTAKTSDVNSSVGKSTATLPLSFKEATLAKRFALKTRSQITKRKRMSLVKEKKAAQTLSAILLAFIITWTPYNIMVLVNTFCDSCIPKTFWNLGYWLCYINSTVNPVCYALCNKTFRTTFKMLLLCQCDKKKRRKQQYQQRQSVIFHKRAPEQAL
Source text: as §2

[7] = NaV1.5, rest state, read-out: ic50_rest_state
[8] = NaV1.5, use dependent block, read-out: ic50_use_dep_block
[9] = at top test concentration 30 uM
[10] = M2 (h) (antagonist radioligand), test compound concentration 10 uM
[11] = read-out: perc_inhibition (% inhibition of the binding of a ligand specific for each target)

| SMILES | perc_inhibition_rest_state (NaV1.5; NaV1.5, rest state) [%] | pIC50 (NaV1.5; [7]) | perc_inhibition_use_dep_block (NaV1.5; NaV1.5, use dependent block) [%] | pIC50 (NaV1.5; [8]) | perc_inhibition_top_conc (hERG; [9]) [%] | pIC50 (hERG) | papp_a_to_b_mean ([3]; A to B, no inhibitor) | papp_b_to_a_mean ([3]; no inhibitor) | efflux_ratio ([3]; no inhibitor) | perc_recovery_a_to_b_mean ([3]; mean) [%] | perc_recovery_a_to_b_mean ([3]; no inhibitor) | perc_recovery_b_to_a_mean ([3]; no inhibitor) | perc_recovery_a_to_b_inhibitor_mean ([3]; with inhibitor Cyclosporin A) | perc_recovery_b_to_a_inhibitor_mean ([3]; with inhibitor Cyclosporin A) | perc_remaining [4] [%] | t_half [4] [min] | perc_remaining_no_cofactor [4] [%] | t_half [5] [min] | t_half [6] [min] | perc_inhibition (% inhibition of the binding of a ligand specific for each target) (AR(h)) [%] | other results |
| --- | --- | --- | --- | --- | --- | --- | --- | --- | --- | --- | --- | --- | --- | --- | --- | --- | --- | --- | --- | --- | --- |
| CC(C)[C@H](Nc1ncnc2[nH]ccc12)c1ccc2c(c1)S(=O)(=O)CCC2 [ASAP-0008674] | 19.0 | < 4.52 | 29.0 | < 4.52 | 39.0 | < 4.52 | 0.12 ×10⁻⁶ cm/s and 0.0631 ×10⁻⁶ cm/s | 5.9 ×10⁻⁶ cm/s and 5.29 ×10⁻⁶ cm/s | 49.5 and 83.8 | 85.4 | 80.0% and 78.8% | 76.5% and 89.6% | 83.2% | 87.0% | 3.0 | 8.1 | 104.0 | 48.5 | 4.49 | 0 | remaining activity at 10 µM (PKCα(h); batch_name=ASAP-0008674-002): 98%; remaining activity at 10 µM (CDK6/cyclinD3(h); batch_name=ASAP-0008674-002): 105%; remaining activity at 10 µM (MAPKAP-K2(h); batch_name=ASAP-0008674-002): 106%; remaining activity at 10 µM ([1]; batch_name=ASAP-0008674-002): 94%; remaining activity at 10 µM (p70S6K(h); batch_name=ASAP-0008674-002): 103%; remaining activity at 10 µM ([2]; batch_name=ASAP-0008674-002): 100%; papp_a_to_b_mean ([3]; A to B, mean): 5.5 ×10⁻⁶ cm/s; perc_recovery_a_to_b_inhibitor_mean ([3]; with inhibitor Verapamil): 90.5%; perc_recovery_b_to_a_inhibitor_mean ([3]; with inhibitor Verapamil): 86.9%; clint [4]: 207.0 µL/min/mg; perc_inhibition (% inhibition of the binding of a ligand specific for each target) (human CHRM2 (M2); [10]): 34%; perc_inhibition (% inhibition of the binding of a ligand specific for each target) (beta1 (h)): 11%; clint [5]: 14.3 µL/min/mg; perc_inhibition (% inhibition of the binding of a ligand specific for each target) (D2S (h)): -14%; clint [6]: 155.0 µL/min/mg; perc_inhibition (% inhibition of the binding of a ligand specific for each target) (M3 (h)): 5% |
| CC(C)C(Nc1ncnc2[nH]c(C(=O)NC3CCN(C)C3)cc12)c1ccc2c(c1)S(=O)(=O)CCC2 (stereo not drawn) [ASAP-0011198] |  | < 4.52 |  | < 4.52 |  | < 4.52 | 0.0631 ×10⁻⁶ cm/s | 0.0474 ×10⁻⁶ cm/s |  | 94.6 | 86.2% and 71.8% | 93.1% and 82.5% | 100.0% and 74.6% | 100.0% and 87.0% | 80.0 | 151.0 | 92.0 | > 139.0 | 88.3 | -5 | inhibition at 30 µM (NaV1.5; NaV1.5, rest state, read-out: perc_inhibition_rest_state): 11%; inhibition at 30 µM (NaV1.5; NaV1.5, use dependent block, read-out: perc_inhibition_use_dep_block): 11%; perc_inhibition_top_conc (hERG; at top test concentration 30 uM, 30 µM): 23.0%; inhibition at 30 µM (hERG; human, at top test concentration 30 uM, read-out: perc_inhibition_top_conc): 18%; remaining activity at 10 µM (PKCα(h); batch_name=ASAP-0011198-002): 101%; remaining activity at 10 µM (CDK6/cyclinD3(h); batch_name=ASAP-0011198-002): 99%; remaining activity at 10 µM (MAPKAP-K2(h); batch_name=ASAP-0011198-002): 108%; remaining activity at 10 µM ([1]; batch_name=ASAP-0011198-002): 104%; remaining activity at 10 µM (p70S6K(h); batch_name=ASAP-0011198-002): 104%; remaining activity at 10 µM ([2]; batch_name=ASAP-0011198-002): 99%; Papp A→B ([3]; dog, MDCK-MDR1, Papp (AB) MDR1/MDCKII, A to B): 2.9 ×10⁻⁶ cm/s; microsomal CLint ([4]; liver microsomes): 11 µL/min/mg; off-target activity at human CHRM2, in words (human CHRM2 (M2); CEREP panel): moderate; inhibition at 10 µM (human CHRM2 (M2); M2 (h) (antagonist radioligand), test compound concentration 10 uM, read-out: perc_inhibition (% inhibition of the binding of a ligand specific for each target)): 52%; inhibition at 10 µM (beta1 (h); [11]): 4%; microsomal CLint ([5]; liver microsomes): < 5 µL/min/mg; inhibition at 10 µM (D2S (h); [11]): -7%; microsomal CLint ([6]; Sprague-Dawley (SD), liver microsomes): 7.85 µL/min/mg; inhibition at 10 µM (M3 (h); [11]): -9% |
| COc1ccc([C@H](Cc2nnn[nH]2)NC(=O)c2ncnc3[nH]ccc23)cc1 [ASAP-0015381] | 9.0 | < 4.52 | 8.0 | < 4.52 | 27.0 | < 4.52 |  | 0.021 ×10⁻⁶ cm/s | 0.67 |  | 87.0% and 68.4% | 84.4% | 83.1% | 85.5% | 115.387 | 205.885 | 100.411 | > 139.0 | > 139.0 | -2 | remaining activity at 10 µM (PKCα(h); batch_name=ASAP-0015381-001): 93%; remaining activity at 10 µM (CDK6/cyclinD3(h); batch_name=ASAP-0015381-001): 102%; remaining activity at 10 µM (MAPKAP-K2(h); batch_name=ASAP-0015381-001): 102%; remaining activity at 10 µM ([1]; batch_name=ASAP-0015381-001): 99%; remaining activity at 10 µM (p70S6K(h); batch_name=ASAP-0015381-001): 113%; remaining activity at 10 µM ([2]; batch_name=ASAP-0015381-001): 97%; clint [4]: 7.0 µL/min/mg; perc_inhibition (% inhibition of the binding of a ligand specific for each target) (human CHRM2 (M2); [10]): -12%; perc_inhibition (% inhibition of the binding of a ligand specific for each target) (beta1 (h)): -3%; clint [5]: < 5.0 µL/min/mg; perc_inhibition (% inhibition of the binding of a ligand specific for each target) (D2S (h)): -4%; clint [6]: < 5.0 µL/min/mg; perc_inhibition (% inhibition of the binding of a ligand specific for each target) (M3 (h)): -15% |
